According to PubChem BioAssay (NCI):
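Protocol summary: plate cells (96-well), add compound at 5 concentrations, incubate 48 h, interpolate endpoints linearly. TGI: concentration producing complete growth inhibition.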

Assays:
Assay in all cases: growth of human tumour cells (NCI), 48 h
KM12 colon = tested on: KM12 colon
U251 CNS = tested on: U251 CNS
SF-295 CNS = tested on: SF-295 CNS
786-0 renal = tested on: 786-0 renal
DMS 273 small cell lung = tested on: DMS 273 small cell lung
SF-539 CNS = tested on: SF-539 CNS
M19-MEL melanoma = tested on: M19-MEL melanoma
HOP-62 NSCLC = tested on: HOP-62 NSCLC
EKVX NSCLC = tested on: EKVX NSCLC
HOP-92 NSCLC = tested on: HOP-92 NSCLC
NCI-H226 lung = tested on: NCI-H226 lung
ACHN renal = tested on: ACHN renal
OVCAR-3 ovarian = tested on: OVCAR-3 ovarian
HCC-2998 colon = tested on: HCC-2998 colon
KM20L2 colon = tested on: KM20L2 colon
LOX IMVI melanoma = tested on: LOX IMVI melanoma
SNB-78 CNS = tested on: SNB-78 CNS
CCRF-CEM leukemia = tested on: CCRF-CEM leukemia
A549 NSCLC = tested on: A549 NSCLC
SNB-75 CNS = tested on: SNB-75 CNS
DMS 114 small cell lung = tested on: DMS 114 small cell lung
HT29 colon = tested on: HT29 colon
K-562 leukemia = tested on: K-562 leukemia
SW-620 colon = tested on: SW-620 colon
NCI-H23 lung = tested on: NCI-H23 lung
HL-60(TB) leukemia = tested on: HL-60(TB) leukemia
A498 renal = tested on: A498 renal
RXF 393 renal = tested on: RXF 393 renal
TK-10 renal = tested on: TK-10 renal
SNB-19 CNS = tested on: SNB-19 CNS
SK-OV-3 ovarian = tested on: SK-OV-3 ovarian
NCI-H522 lung = tested on: NCI-H522 lung
SK-MEL-28 melanoma = tested on: SK-MEL-28 melanoma
LXFL 529 NSCLC = tested on: LXFL 529 NSCLC
UACC-257 melanoma = tested on: UACC-257 melanoma
SN12C renal = tested on: SN12C renal
MALME-3M melanoma = tested on: MALME-3M melanoma
UO-31 renal = tested on: UO-31 renal
NCI-H460 lung = tested on: NCI-H460 lung
RPMI-8226 leukemia = tested on: RPMI-8226 leukemia
IGROV1 ovarian = tested on: IGROV1 ovarian
DLD-1 colon = tested on: DLD-1 colon
MOLT-4 leukemia = tested on: MOLT-4 leukemia
SF-268 CNS = tested on: SF-268 CNS
OVCAR-5 ovarian = tested on: OVCAR-5 ovarian
CAKI-1 renal = tested on: CAKI-1 renal
HCT-116 colon = tested on: HCT-116 colon
SK-MEL-2 melanoma = tested on: SK-MEL-2 melanoma
COLO 205 colon = tested on: COLO 205 colon
M14 melanoma = tested on: M14 melanoma
UACC-62 melanoma = tested on: UACC-62 melanoma
OVCAR-8 ovarian = tested on: OVCAR-8 ovarian
SR leukemia = tested on: SR leukemia
SK-MEL-5 melanoma = tested on: SK-MEL-5 melanoma

Measured: TGI

CC1=CP(=O)(OC(C)C)CC(C)=C1Cl (centres undefined)
> 100 µM: all assays above
